Test results from ChEMBL document CHEMBL1158954, “Anti-AIDS agents, 3. Inhibitory effects of colchicine derivatives on HIV replication in H9 lymphocyte cells” (J Nat Prod, 1991).

How the values were obtained:
H9 (Homo sapiens) = assay: microbe, parasite or virus in culture; conditions: H9, 72 h
H9 = assay: Cytotoxicity against human H9 cells; format: ADME, cell-based

SMILES	IC50 (H9 (Homo sapiens)) [nM]	EC50 (H9) [nM]
COc1cc2c(c(OC)c1O)-c1ccc(SC)c(=O)cc1[C@@H](NC(C)=O)CC2	52	47
COc1cc(/C=C/C(=O)N[C@H]2CCc3cc(OC)c(OC)c(OC)c3-c3ccc(OC)c(=O)cc32)cc(OC)c1O	180	180
COc1cc(C(=O)N[C@H]2CCc3cc(OC)c(OC)c(OC)c3-c3ccc(OC)c(=O)cc32)cc(OC)c1OC	40	20
COc1cc(/C=C/C(=O)N[C@H]2CCc3cc(OC)c(OC)c(OC)c3-c3ccc(OC)c(=O)cc32)cc(OC)c1OC	5.5	5.5
COc1cc2c(c(OC)c1OC)-c1ccc(N(C)C)c(=O)cc1[C@@H](NC(C)=O)CC2	85	85
COc1cc(C(=O)N[C@H]2CCc3cc(OC)c(OC)c(OC)c3-c3ccc(OC(=O)c4cc(OC)c(OC)c(OC)c4)c(=O)cc32)cc(OC)c1OC	–	1400
COc1cc2c(c(OC)c1OC)-c1ccc(O)c(=O)cc1[C@@H](NC(=O)C(F)(F)F)CC2	200	570
COc1cc2c(c(OC)c1O)-c1ccc(O)c(=O)cc1[C@@H](NC(C)=O)CC2	270	270
COc1cc2c(c(OC)c1OC)-c1ccc(N(C)C)c(=O)cc1[C@@H](N)CC2	1600	940
CC(=O)N[C@H]1CCc2cc(O)c(O)c(O)c2-c2ccc(O)c(=O)cc21	1200	1200
COc1cc2c(c(OC)c1OC)-c1ccc(OC)c(=O)cc1[C@@H](NC(=O)/C=C/c1ccc(O)c(O)c1)CC2	290	290
COc1cc2c(c(OC)c1OC)-c1ccc(=O)c(OC)cc1[C@@H](N)CC2	2800	2800
N[C@H]1CCc2cc(O)c(O)c(O)c2-c2ccc(=O)c(O)cc21	50000	30000
COc1cc2c(c(OC)c1O)-c1ccc(SC)c(=O)cc1[C@@H](N)CC2	1400	1100
COc1cc2c(c(OC)c1OC)-c1ccc(O)c(=O)cc1[C@@H](N)CC2	1200	1300
COc1cc2c(c(OC)c1OC)-c1ccc(=O)c(N(C)C)cc1[C@@H](N)CC2	> 2700	> 2700
COc1cc2c(c(OC)c1OC)-c1ccc(OC)c(=O)cc1[C@@H](NC(=O)C(F)(F)F)CC2	6.6	8.8
COc1cc2c(c(OC)c1OC)-c1ccc(=O)c(OC)cc1[C@@H](NC(=O)C(F)(F)F)CC2	660	660
O=C(N[C@H]1CCc2cc(O)c(O)c(O)c2-c2ccc(=O)c(O)cc21)C(F)(F)F	23000	23000
COc1cc2c(c(OC)c1O)-c1ccc(OC)c(=O)cc1[C@@H](NC(C)=O)CC2 [2-DESMETHYLCOLCHICIN]	260	260
COc1cc2c(c(OC)c1OC)-c1ccc(OC)c(=O)cc1[C@@H](NC(C)=O)CC2 [COLCHICINE]	18	10
